Read-outs that look alike come from different tables or passages of the source.
Experiments:
[1] = tested on: colorectal HCT-116 cancer cell line; assay: In vitro cytotoxic activity (MTT assay), HCT-116; type: cell-based, human; details: for inhibition at 100 µM: read-out: % inhibition ± SD HCT-116
From the text: (§1) The supplemental file contained extra details.

[2] = tested on: breast MCF-7 cancer cell line; assay: In vitro cytotoxic activity (MTT assay), MCF-7; type: cell-based, human; details: for inhibition at 100 µM / IC50: Homo sapiens; for inhibition at 100 µM: read-out: % inhibition ± SD MCF-7; for IC50: MCF-7 cells, MTT, read-out: IC50 (mean ± SD) MCF-7
From the text: as §1

[3] = tested on: liver HepG-2 cancer cell line; assay: In vitro cytotoxic activity (MTT assay), HepG-2; details: for IC50 / inhibition at 100 µM: Homo sapiens; for IC50: HepG2, read-out: IC50 (mean ± SD) HepG-2; for inhibition at 100 µM: HepG2, 48 h, read-out: % inhibition ± SD HepG-2
From the text: as §1

[4] = tested on: lung A-549 cancer cell line; assay: In vitro cytotoxic activity (MTT assay), A-549; details: Homo sapiens; for inhibition at 100 µM: A549, 48 h, read-out: % inhibition ± SD A-549
Experimental: Exponentially, cells were placed in 10^4 cells/ well for 24 h, and then add fresh medium which containing different concentration of the tested sample. Serial two-fold dilution of the tested sample were added using a multichannel pipette. […] Rinse the wells using water until no stain. After that, add 30% glacial acetic acid to all wells with shaking plates on Microplate reader (TECAN, Inc.) to measure the absorbance, using a test wavelength of 490 nm. Besides, compare the treated samples with the control cell.

[5] = Homo sapiens, HCT-116, 100 µM, 48 h

melting point [°C]	SMILES	inhibition at 100 µM [1, 5] [%]	inhibition at 100 µM ([2]; MCF7, 100 µM, 48 h) [%]	percentage cytotoxicity on HepG-2 ([3]; 12.5 µM) [%]	percentage cytotoxicity on HepG-2 ([3]; 25 µM) [%]	percentage cytotoxicity on HepG-2 ([3]; 50 µM) [%]	percentage cytotoxicity on HepG-2 ([3]; 100 µM) [%]	IC50 [3] [µM]	inhibition at 100 µM [4] [%]	IC50 ([2]; MCF7) [µM]	also measured
47 to 49	CCCCNS(=O)(=O)c1ccc(N=[N+]=[N-])cc1 [Compound 3, 4-Azido-N-butylbenzenesulfonamide]	16.7 ± 0.6	51.97 ± 0.29	3.76±5.32	19.08±1.88	49.40±1.91	71.40±0.91	57.6 ± 12.2	20.47 ± 0.15	–	–
–	CCCCNS(=O)(=O)c1ccc(-n2cc(CO[C@@H]3O[C@H](COC(C)=O)[C@H](OC(C)=O)[C@H](OC(C)=O)[C@H]3OC(C)=O)nn2)cc1 [Compound 6, N-butyl-4-(4-([2,3,4,6-tetra-O-acetyl-β-D-galactopyranosyl]oxymethyl)-1H-1,2,3-triazol-1-yl)benzenesulfonamide]	0	37.5 ± 0.52	–	–	–	–	–	32.53 ± 0.15	–	inhibition at 100 µM [3]: 8.93 ± 0.74%
–	CCCCNS(=O)(=O)c1ccc(-n2cc(CO[C@@H]3OC[C@@H](OC(C)=O)[C@H](OC(C)=O)[C@H]3OC(C)=O)nn2)cc1 [Compound 8, N-butyl-4-(4-([2,3,4-tri-O-acetyl-β-D-xylopyranosyl]oxymethyl)-1H-1,2,3-triazol-1-yl)benzenesulfonamide]	41.05 ± 0.18	66 ± 0.69	23.15±0.43	32.80±2.12	50.73±1.45	69.17±0.21	47 ± 0.51	58.1 ± 0.56	46.49 ± 0.42	percentage cytotoxicity on MCF-7 ([2]; 12.5 µM): 29.56±1.66%; percentage cytotoxicity on MCF-7 ([2]; 25 µM): 36.13±2.06%; percentage cytotoxicity on MCF-7 ([2]; 50 µM): 49.80±0.41%; percentage cytotoxicity on MCF-7 ([2]; 100 µM): 66.04±0.69%
100 to 102	CCCCNS(=O)(=O)c1ccc(-n2cc(CO[C@@H]3O[C@H](CO)[C@H](O)[C@H](O)[C@H]3O)nn2)cc1 [Compound 10, N-butyl-4-(4-([β-D-Galactopyranosyl]oxymethyl)-1H-1,2,3-triazol-1-yl)benzenesulfonamide]	8.91 ± 2.7	25.4 ± 0.91	–	–	–	–	–	32 ± 0.84	–	inhibition at 100 µM [3]: 35.9 ± 0.42%
118 to 120	O=S(=O)(NC1CCCCC1)c1ccc(-n2cc(CO[C@@H]3O[C@H](CO)[C@H](O)[C@H](O)[C@H]3O)nn2)cc1 [Compound 11, N-cyclohexyl-4-(4-([β-D-galactopyranosyl]oxymethyl)-1H-1,2,3-triazol-1-yl)benzenesulfonamide]	39 ± 0.96	20.8 ± 0.79	44.80±0.50	57.70±0.87	62.70±0.36	73.85±1.06	16.9 ± 0.09	30.1 ± 0.62	–	–
160 to 162	O=S(=O)(NC1CCCCC1)c1ccc(-n2cc(CO[C@@H]3OC[C@@H](O)[C@H](O)[C@H]3O)nn2)cc1 [Compound 13, N-cyclohexyl-4-(4-([β-D-Xylopyranosyl]oxymethyl)-1H-1,2,3-triazol-1-yl)benzenesulfonamide]	70.1 ± 1.05	71.43 ± 0.03	43.30±0.66	38.80±0.40	56.20±1.29	75.10±0.12	30.01 ± 0.06	54.6 ± 0.97	30.83 ± 0.2	percentage cytotoxicity on HCT-116 ([1]; 12.5 µM): 11.00±0.65%; percentage cytotoxicity on HCT-116 ([1]; 25 µM): 28.51±0.69%; percentage cytotoxicity on HCT-116 ([1]; 50 µM): 47.00±0.79%; percentage cytotoxicity on HCT-116 ([1]; 100 µM): 70.10±1.05%; IC50 ([1]; Homo sapiens, HCT-116 cells, MTT, read-out: IC50 (mean ± SD) HCT-116): 53.1 ± 0.69 µM; percentage cytotoxicity on MCF-7 ([2]; 12.5 µM): 34.87±5.91%; percentage cytotoxicity on MCF-7 ([2]; 25 µM): 48.07±4.31%; percentage cytotoxicity on MCF-7 ([2]; 50 µM): 54.73±1.88%; percentage cytotoxicity on MCF-7 ([2]; 100 µM): 71.43±2.03%
–	COc1cccc2c1C(=O)c1c(O)c3c(c(O)c1C2=O)C[C@@](O)(C(=O)CO)C[C@@H]3O[C@H]1C[C@H](N)[C@H](O)[C@H](C)O1 [Doxorubicin, reference compound]	100 ± 0.25	100 ± 0.08	–	–	–	–	13.8 ± 0.45	100 ± 0.2	17.4 ± 0.46	–
–	CCN(CC)CCNC(=O)c1c(C)[nH]c(/C=C2\C(=O)Nc3ccc(F)cc32)c1C [Sunitinib, reference compound]	–	–	–	–	–	–	–	–	–	IC50 ([4]; A549, read-out: IC50 (mean ± SD) A-549): 10.1 ± 0.5 µM

SMILES	melting point [°C]	inhibition at 100 µM [1, 5] [%]	inhibition at 100 µM ([2]; MCF7, 100 µM, 48 h) [%]	percentage cytotoxicity on HepG-2 ([3]; 12.5 µM) [%]	percentage cytotoxicity on HepG-2 ([3]; 25 µM) [%]	percentage cytotoxicity on HepG-2 ([3]; 50 µM) [%]	percentage cytotoxicity on HepG-2 ([3]; 100 µM) [%]	IC50 [3] [µM]	inhibition at 100 µM [4] [%]	IC50 ([2]; MCF7) [µM]	also measured
CCCCNS(=O)(=O)c1ccc(-n2cc(CO[C@@H]3OC[C@@H](O)[C@H](O)[C@H]3O)nn2)cc1 [Compound 12, N-butyl-4-(4-([β-D-Xylopyranosyl]oxymethyl)-1H-1,2,3-triazol-1-yl)benzenesulfonamide]	150 to 152	–	–	33.95±0.33	44.70±1.13	55.95±0.44	62.86±1.19	36.44 ± 0.12	17.8 ± 0.95	–	inhibition at 100 µM ([1]; Homo sapiens, HCT-116, 48 h): 0%; inhibition at 100 µM ([2]; MCF7, 48 h): 41.4 ± 0.91%

Reference: paper PMC11156913, “New sulfonamide-based glycosides incorporated 1,2,3-triazole as cytotoxic agents through VEGFR-2 and carbonic anhydrase inhibitory activity” (Scientific Reports, 2024)
